Test results published in patent publication US20060222628A1, “Gallium complexes of 3-hydroxy-4-pyrones to treat infection by intracellular prokaryotes and DNA viruses” (priority 1999, published 2006).

Experiments:
[1] = in vivo, po; cited from earlier work
[2] = tested on: HIV-1; conditions: at subinhibitory concentrations; cited from earlier work
[3] = format: physicochemical
Method: The material forms white to pale beige monoclinic crystals with unit cell parameters of about a=7.899(1)Å, b=8.765(1)Å, c=31.626(2)Å, beta=103.253(7) degrees, V=2131 Å^3, based on powder x-ray diffraction analysis. The solubility of this compound is measured as about 5 millimolar in distilled deionized water at 23° C. Crystallization from other solvents or under other conditions may produce other crystal structures. Under some conditions, water or other solvents may also be incorporated into the structure. […] About 5.5 grams of powdered anhydrous sodium carbonate are added, and stirring continues for additional 12 minutes. […] The remaining crystalline solid is the 3:1 maltol gallium composition. […] The solubility of this composition is measured as about 24 millimolar in distilled deionized water at 23° C.

[4] = tested on: reverse transcriptase in Rauscher murine leukemia virus; conditions: in vitro; cited from earlier work

Compound: CCc1occc(=O)c1O [ethyl maltol, 3-hydroxy-2-ethyl-4-pyrone]
- Toxicity when taken orally [1]: very low toxicities

Compound: O=[N+]([O-])[O-].O=[N+]([O-])[O-].O=[N+]([O-])[O-].[Ga+3] [gallium nitrate]
- Effect on inhibitory effects of nucleoside analogs [2]: potentiated the inhibitory effects of zidovudine, azidothymidine (AZT), dideoxy inosine (ddI), and dideoxy cytosine (ddC)

Compound: CCc1occc(=O)c1[O-].CCc1occc(=O)c1[O-].CCc1occc(=O)c1[O-].[Ga+3] [gallium ethyl maltolate, tris(3-hydroxy-2-ethyl-4H-pyran-4-onato)gallium]
- Solubility [3]: about 5 millimolar

Compound: [Ga] [Gallium]
- Inhibition of reverse transcriptase [4]: shown in vitro to inhibit the enzyme reverse transcriptase

Compound: Cc1occc(=O)c1O [maltol, 3-hydroxy-2-methyl-4-pyrone]
- Toxicity when taken orally [1]: very low toxicities
